US20050214375A1, “Process for producing block copolymer/drug composite” (priority 2002, published 2005)
Where a name gives a salt, the structure may show the parent alone. Read-outs that look alike come from different tables or passages of the source.

Tested on: Colon 26 adenocarcinoma cells
Conditions: intravenous; for T/C (%) volume ratio of tumor against control groups 14 days after administration: CDF1 female mouse, Colon 26
Experimental: Colon 26 adenocarcinoma cells were transplanted subcutaneously in the subaxillary region of each CDF1 female mouse. When the volume of the tumor reached around 100 mm^3, the block copolymer-drug composite obtained in Example 1 or doxorubicin hydrochloride was administered intravenously. […] The antitumor effect of the drug was judged from the number of mice showing disappearance of tumor (cured) 60 days after transplantation and the tumor proliferation inhibition ratio 14 days after administration.

**Q.** What does the source list for `COc1cccc2c1C(=O)c1c(O)c3c(c(O)c1C2=O)C[C@@](O)(C(=O)CO)C[C@@H]3O[C@H]1C[C@H](N)[C@H](O)[C@H](C)O1` [Doxorubicin hydrochloride, doxorubicin hydrochloride]?
**A.** Cure/n: number of mice showing cure after 60 days observation period/number in one group (dose 19.2 mg/kg): 2/10; Tox./n: number of mice died with toxicity/number in one group (dose 19.2 mg/kg): 0/10; T/C (%) volume ratio of tumor against control groups 14 days after administration (dose 19.2 mg/kg): 13.5%; Cure/n: number of mice showing cure after 60 days observation period/number in one group (dose 24.0 mg/kg): 4/10; Tox./n: number of mice died with toxicity/number in one group (dose 24.0 mg/kg): 0/10; T/C (%) volume ratio of tumor against control groups 14 days after administration (dose 24.0 mg/kg): 6.4%; Cure/n: number of mice showing cure after 60 days observation period/number in one group (dose 30.0 mg/kg): 3/10; Tox./n: number of mice died with toxicity/number in one group (dose 30.0 mg/kg): 1/10; T/C (%) volume ratio of tumor against control groups 14 days after administration (dose 30.0 mg/kg): 9.9%
